Laboratory results: the supplement of paper PMC10307832

What was measured:
Test in all cases: relative viability (nuclei count vs DMSO), 5 days (fraction); higher = more cells survive
Axitinib + Olaparib = compound: CNC(=O)c1ccccc1Sc1ccc2c(/C=C/c3ccccn3)n[nH]c2c1 [Axitinib] + O=C(c1cc(Cc2n[nH]c(=O)c3ccccc23)ccc1F)N1CCN(C(=O)C2CC2)CC1 [Olaparib] (partner 8 µM)
In short: (§1)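 For relative viability, nuclei counts in treated wells were divided by those in vehicle wells. Lung cancer cell lines had been pin-tool dosed in 1536-well plates the day after seeding and cultured for 5 days, then fixed and stained in one step (final 0.05% Triton X-100, 1% formaldehyde, 1 ug/ml Hoechst) and imaged at 4×. Doses were one drug alone or a fixed anchor-drug dose plus five library-drug doses (not always all listed) in √10 steps, and values are duplicate-plate medians.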

Axitinib + Pemetrexed = compound: CNC(=O)c1ccccc1Sc1ccc2c(/C=C/c3ccccn3)n[nH]c2c1 [Axitinib] + Nc1nc2[nH]cc(CCc3ccc(C(=O)N[C@@H](CCC(=O)O)C(=O)O)cc3)c2c(=O)[nH]1 [Pemetrexed] (partner 0.2 µM)
In short: as §1

[1] = compound: CC1=CC=C(C=C1)C(=O)CN2C3=C(CCCC3)SC2=N [Pifithrin_alpha] + O=C(c1cc(Cc2n[nH]c(=O)c3ccccc23)ccc1F)N1CCN(C(=O)C2CC2)CC1 [Olaparib] (partner 8 µM)
In short: as §1

Axitinib + Phenformin = compound: CNC(=O)c1ccccc1Sc1ccc2c(/C=C/c3ccccn3)n[nH]c2c1 [Axitinib] + N=C(N)NC(=N)NCCc1ccccc1 [Phenformin] (partner 250 µM)
In short: as §1

Cell Line | relative viability (Axitinib + Olaparib; first compound 0.005 µM) | relative viability (Axitinib + Olaparib; first compound 0.01581 µM) | relative viability (Axitinib + Olaparib; first compound 0.05 µM) | relative viability (Axitinib + Olaparib; first compound 0.1581 µM) | relative viability (Axitinib + Olaparib; first compound 0.5 µM) | relative viability (Axitinib + Pemetrexed; first compound 0.005 µM) | relative viability (Axitinib + Pemetrexed; first compound 0.01581 µM) | relative viability (Axitinib + Pemetrexed; first compound 0.05 µM) | relative viability (Axitinib + Pemetrexed; first compound 0.1581 µM) | relative viability (Axitinib + Pemetrexed; first compound 0.5 µM) | relative viability ([1]; first compound 1 µM) | relative viability ([1]; first compound 3.162 µM) | relative viability ([1]; first compound 10 µM) | relative viability ([1]; first compound 31.62 µM) | relative viability ([1]; first compound 100 µM) | relative viability (Axitinib + Phenformin; first compound 0.005 µM) | relative viability (Axitinib + Phenformin; first compound 0.01581 µM) | relative viability (Axitinib + Phenformin; first compound 0.05 µM) | relative viability (Axitinib + Phenformin; first compound 0.1581 µM) | relative viability (Axitinib + Phenformin; first compound 0.5 µM)
LXF-289 | 1.11 | 1.03 | 1.05 | 0.982 | 1 | 1.01 | 0.91 | 0.968 | 0.888 | 0.982 | 1.16 | 0.994 | 1.1 | 0.717 | 1.16 | 0.534 | 0.518 | 0.526 | 0.508 | 0.516
NCI-H596 | 0.739 | 0.663 | 0.739 | 0.719 | 0.705 | 0.517 | 0.483 | 0.676 | 0.533 | 0.433 | 0.634 | 0.589 | 0.679 | 0.492 | 0.513 | 0.735 | 0.784 | 0.841 | 0.746 | 0.638
NCI-H1993 | 1 | 1.12 | 1.04 | 1.01 | 1.04 | 0.606 | 0.601 | 0.604 | 0.628 | 0.541 | 1.06 | 1.11 | 0.779 | 0.697 | 0.866 | 0.494 | 0.514 | 0.496 | 0.592 | 0.529
NCI-H1437 | 0.677 | 0.623 | 0.62 | 0.611 | 0.629 | 0.321 | 0.325 | 0.324 | 0.336 | 0.324 | 0.681 | 0.604 | 0.521 | 0.383 | 0.277 | 0.335 | 0.314 | 0.357 | 0.277 | 0.299
NCI-H1792 | 0.458 | 0.445 | 0.576 | 0.485 | 0.651 | 1.05 | 0.784 | 0.786 | 0.816 | 0.792 | 0.469 | 0.348 | 0.272 | – | 0.255 | 0.323 | – | – | 0.304 | 0.186
NCI-H2023 | 0.528 | 0.487 | 0.495 | 0.555 | 0.574 | 0.237 | 0.232 | 0.177 | 0.252 | 0.291 | 0.514 | 0.455 | 0.318 | 0.301 | 0.244 | 0.426 | 0.436 | 0.467 | 0.372 | 0.473
LK-2 | 0.65 | 0.609 | 0.762 | 0.712 | 0.545 | 0.26 | 0.216 | 0.234 | 0.258 | 0.242 | 0.554 | 0.833 | 0.933 | – | 0.776 | 0.674 | 0.202 | 0.481 | 0.353 | 0.293
HOP-62 | 0.392 | 0.443 | 0.321 | 0.569 | 0.682 | 0.378 | 0.328 | 0.31 | 0.41 | 0.482 | 0.524 | 0.635 | 0.446 | 0.127 | 0.65 | 0.73 | 0.63 | 0.742 | 0.665 | 0.853
